Measurements: patent US6441006B2, “Pharmaceutical compositions and methods for use” (Targacept, Inc., priority 1998, dated 2002)

What was measured:
CNS nicotinic receptors [1] = target: T1, CNS nicotinic receptors (Rattus norvegicus, UniProt P09483+P12390); assay: Binding to relevant receptor sites; conditions: calculated from IC50 values using the method of Cheng et al.
T1 construct: Ki
Experimental: Binding of the compounds to relevant receptor sites was determined in accordance with the techniques described in U.S. Pat. No. 5,597,919 to Dull et al. Inhibition constants (Ki values), reported in nM, were calculated from the IC50 values using the method of Cheng et al., Biochem, Pharmacol. 22:3099 (1973).

[2] = target: T2, muscle-type nicotinic acetylcholine receptors (Homo sapiens, UniProt P02708+P07510+Q07001); assay: Interaction with muscle receptors; assay type: cell-based
T2 construct: endogenous in cells; host or cells: TE671/RD (own knowledge of the cited US 5,597,919)
T2 sequence (P02708 21-457): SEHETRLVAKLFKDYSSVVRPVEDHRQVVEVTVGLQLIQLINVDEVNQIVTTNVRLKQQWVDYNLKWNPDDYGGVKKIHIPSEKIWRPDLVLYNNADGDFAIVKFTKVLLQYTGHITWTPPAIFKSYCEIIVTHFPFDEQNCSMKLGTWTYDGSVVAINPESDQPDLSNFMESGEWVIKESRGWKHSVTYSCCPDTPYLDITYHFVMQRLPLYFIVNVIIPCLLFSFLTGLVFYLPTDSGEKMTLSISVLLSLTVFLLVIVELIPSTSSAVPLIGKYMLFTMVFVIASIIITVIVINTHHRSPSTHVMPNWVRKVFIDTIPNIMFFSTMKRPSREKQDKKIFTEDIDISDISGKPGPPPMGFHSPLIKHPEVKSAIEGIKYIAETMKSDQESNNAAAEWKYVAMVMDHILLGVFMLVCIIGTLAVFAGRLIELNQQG
T2 sequence (P11230 24-501 partner): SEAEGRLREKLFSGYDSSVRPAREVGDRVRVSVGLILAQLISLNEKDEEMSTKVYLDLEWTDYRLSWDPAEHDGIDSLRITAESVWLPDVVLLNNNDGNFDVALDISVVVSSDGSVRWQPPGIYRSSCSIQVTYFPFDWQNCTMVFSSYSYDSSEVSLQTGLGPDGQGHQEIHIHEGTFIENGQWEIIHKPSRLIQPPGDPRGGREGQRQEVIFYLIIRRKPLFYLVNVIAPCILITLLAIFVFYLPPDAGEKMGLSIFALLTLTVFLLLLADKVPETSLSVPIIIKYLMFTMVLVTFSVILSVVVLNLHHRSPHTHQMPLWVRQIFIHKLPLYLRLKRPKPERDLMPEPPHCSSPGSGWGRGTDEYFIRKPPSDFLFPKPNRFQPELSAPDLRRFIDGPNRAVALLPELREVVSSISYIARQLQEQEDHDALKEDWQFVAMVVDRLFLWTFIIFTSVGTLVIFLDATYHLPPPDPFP
T2 sequence (Q07001 22-517): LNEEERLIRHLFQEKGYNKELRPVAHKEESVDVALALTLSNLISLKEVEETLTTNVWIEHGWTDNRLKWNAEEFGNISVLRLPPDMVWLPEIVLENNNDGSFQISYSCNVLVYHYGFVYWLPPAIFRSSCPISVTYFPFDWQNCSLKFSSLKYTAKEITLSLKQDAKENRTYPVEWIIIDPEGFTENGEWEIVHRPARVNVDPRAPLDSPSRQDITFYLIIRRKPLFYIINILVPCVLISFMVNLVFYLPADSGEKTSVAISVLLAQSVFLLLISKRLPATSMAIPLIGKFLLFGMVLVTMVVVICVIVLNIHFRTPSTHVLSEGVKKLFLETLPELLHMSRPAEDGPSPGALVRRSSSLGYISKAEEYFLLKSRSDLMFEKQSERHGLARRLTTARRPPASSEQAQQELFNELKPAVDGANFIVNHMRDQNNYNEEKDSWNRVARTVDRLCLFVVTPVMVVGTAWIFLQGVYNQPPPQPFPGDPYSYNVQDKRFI
T2 sequence (P07510 23-517): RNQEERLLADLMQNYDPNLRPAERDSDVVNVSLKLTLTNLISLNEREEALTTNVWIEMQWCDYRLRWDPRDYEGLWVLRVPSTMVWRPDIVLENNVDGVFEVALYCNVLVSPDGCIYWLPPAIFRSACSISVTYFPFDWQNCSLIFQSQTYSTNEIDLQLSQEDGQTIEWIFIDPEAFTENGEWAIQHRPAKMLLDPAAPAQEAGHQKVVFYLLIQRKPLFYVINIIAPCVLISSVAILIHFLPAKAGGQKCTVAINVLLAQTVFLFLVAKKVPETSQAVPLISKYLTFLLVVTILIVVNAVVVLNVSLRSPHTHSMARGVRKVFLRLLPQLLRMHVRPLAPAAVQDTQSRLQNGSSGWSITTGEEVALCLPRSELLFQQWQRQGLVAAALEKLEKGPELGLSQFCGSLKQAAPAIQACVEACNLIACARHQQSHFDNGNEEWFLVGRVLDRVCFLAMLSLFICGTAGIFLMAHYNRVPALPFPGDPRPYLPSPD
Experimental: (§1) The determination of the interaction of the compounds with muscle receptors was carried out in accordance with the techniques described in U.S. Pat. No. 5,597,919 to Dull et al. The maximal activation for individual compounds (Emax) was determined as a percentage of the maximal activation induced by (S)-(−)-nicotine. Reported Emax values represent the amount released relative to (S)-(−)-nicotine on a percentage basis. […] Such preferable compounds have the capability to activate human CNS receptors without activating muscle-type nicotinic acetylcholine receptors. Thus, there is provided a therapeutic window for utilization in the treatment of CNS disorders. […] The compounds begin to cause muscle effects only when employed in amounts of many times those required to activate dopamine release.

[3] = tested on: ganglia-type nicotinic acetylcholine receptors; assay: Interaction with ganglion receptors; assay type: cell-based
Experimental: as §1, with “ganglionic” for “muscle”, “ganglia-type” for “muscle-type”, “cause” for “cause muscle”, “effects at ganglia” for “effects”
The determination of the interaction of the compounds with ganglionic receptors was carried out in accordance with the techniques described in U.S. Pat. No. 5,597,919 to Dull et al. The maximal activation for individual compounds (Emax) was determined as a percentage of the maximal activation induced by (S)-(−)-nicotine. Reported Emax values represent the amount released relative to (S)-(−)-nicotine on a percentage basis.

dopamine release = assay: Dopamine release; assay type: biochemical
Experimental: Dopamine release was measured using the techniques described in U.S. Pat. No. 5,597,919 to Dull et al. Release is expressed as a percentage of release obtained with a concentration of (S)-(−)-nicotine resulting in maximal effects. Reported EC50 values are expressed in nM, and Emax values represent the amount released relative to (S)-(−)-nicotine on a percentage basis.

CNS nicotinic receptors [4] = target: T3, CNS nicotinic receptors; assay: Rubidium release; assay type: biochemical
T3 construct: Emax, rubidium release; other: relative to 300 uM tetramethylammonium ion
Experimental: Rubidium release was measured using the techniques described in Bencherif et al., JPET, 279: 1413-1421 (1996). Reported EC50 values are expressed in nM, and Emax values represent the amount of rubidium ion released relative to 300 uM tetranmethylammonium ion, on a percentage basis.

laboratory rats = assay: Step-through passive avoidance, scopolamine induced amnesia; assay type: in vivo, rat; conditions: 0.3 to 3 umol/kg subcutaneous, 0.5 umol/kg scopolamine
Experimental: A Gemini Avoidance System (San Diego Instruments) were used to evaluate animals in a passive avoidance experiment. During the period of habituation, laboratory rats received a subcutaneous injection of saline. On the acquisition day, each rat received a subcutaneous injection of 0.5 umol/kg scopolamine (or saline in the case of the vehicle control group) 30 minutes prior to being placed in the chambers. Five minutes following scopolamine injection, (or 25 minutes before being placed in the chamber), each rat was administered a subcutaneous injection with one of four doses of the compound. Thirty minutes following the scopolamine or vehicle injection, each rat was placed in the brightly illuminated chamber, facing away from the sliding door. After 10 seconds, the door separating the chambers opened allowing access to the dark chamber. The time to enter the dark chamber was measured. Immediately upon entering the dark chamber, the rat received a mild foot shock (0.5 mAmp) for 2 seconds. Twenty four hours following training, each rat was placed in the light chamber facing away from the sliding door. […] Statistical differences in latencies (latency during acquisition and retention trials) were analyzed by Kruskal-Wallis one-way analysis of variance on ranks followed by the either of two-tailed Mann-Whitney U-test or Newman-Keuls analog test if values of p less than 0.05 were obtained. […]

[5] = Emax, percentage of maximal activation induced by (S)-(-)-nicotine

T1 sequence (P09483 31-630): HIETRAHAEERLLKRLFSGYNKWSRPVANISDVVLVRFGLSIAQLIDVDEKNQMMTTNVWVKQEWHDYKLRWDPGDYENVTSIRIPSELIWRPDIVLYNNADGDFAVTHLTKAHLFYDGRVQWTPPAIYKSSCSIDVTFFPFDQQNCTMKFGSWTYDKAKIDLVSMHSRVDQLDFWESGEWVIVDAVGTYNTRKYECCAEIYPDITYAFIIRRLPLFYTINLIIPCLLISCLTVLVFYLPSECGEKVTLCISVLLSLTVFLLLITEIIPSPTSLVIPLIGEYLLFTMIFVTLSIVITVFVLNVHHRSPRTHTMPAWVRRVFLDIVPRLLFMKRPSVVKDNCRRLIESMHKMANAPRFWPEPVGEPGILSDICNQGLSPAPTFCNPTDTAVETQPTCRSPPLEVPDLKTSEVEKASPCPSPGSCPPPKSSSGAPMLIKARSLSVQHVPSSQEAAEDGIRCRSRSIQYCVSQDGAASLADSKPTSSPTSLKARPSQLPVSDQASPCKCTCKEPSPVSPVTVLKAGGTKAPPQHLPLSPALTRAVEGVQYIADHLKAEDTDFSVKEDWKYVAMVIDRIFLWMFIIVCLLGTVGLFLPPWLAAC
T1 sequence (P12390 25-500): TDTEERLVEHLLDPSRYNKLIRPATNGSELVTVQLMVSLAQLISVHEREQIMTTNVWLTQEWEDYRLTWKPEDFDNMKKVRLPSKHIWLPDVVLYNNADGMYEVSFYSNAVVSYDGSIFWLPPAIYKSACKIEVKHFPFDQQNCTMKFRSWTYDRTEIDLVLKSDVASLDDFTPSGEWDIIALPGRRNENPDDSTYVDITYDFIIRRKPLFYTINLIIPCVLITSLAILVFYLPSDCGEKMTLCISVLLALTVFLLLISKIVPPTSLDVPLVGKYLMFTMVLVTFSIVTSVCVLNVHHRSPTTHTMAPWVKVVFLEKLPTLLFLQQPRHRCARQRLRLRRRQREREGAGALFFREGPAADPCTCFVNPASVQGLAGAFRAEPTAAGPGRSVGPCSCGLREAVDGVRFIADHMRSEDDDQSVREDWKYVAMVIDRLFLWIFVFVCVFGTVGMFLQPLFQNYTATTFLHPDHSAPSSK

Molecule	Ki (CNS nicotinic receptors [1]) [nM]	Emax at muscle-type receptors ([2]; relative to (S)-(-)-nicotine) [%]	Emax at ganglionic-type receptors ([3]; relative to (S)-(-)-nicotine) [%]	EC50 (dopamine release) [nM]	Emax, dopamine release (dopamine release; amount released relative to (S)-(-)-nicotine) [%]	EC50 (CNS nicotinic receptors [4]) [nM]	Emax, rubidium release (CNS nicotinic receptors [4]; relative to 300 uM tetramethylammonium ion) [%]	reversal of scopolamine induced amnesia (laboratory rats)	effect at muscle sites [2, 5] [%]	effect at ganglia sites [3, 5] [%]	melting point [°C]
(3-(3-Pyridyloxy)propyl)methylamine Hemigalactarate [Example 5]	13	0	93	369	96	960	83	significant reversal of scopolamine induced amnesia			
Cl.Cl.c1cncc(OC2CCNCC2)c1 [Example 35, 3-(4-Piperidinyloxy)pyridine Dihydrochloride]									16	9	71 to 73.5
